{"source": "patent US11052154B2", "about": "“Ras protein degradation inducing molecule and pharmaceutical composition” (Tokyo University of Science Foundation, priority 2016, dated 2021)", "format_in_all_cases": "cell-based", "key": {"[1]": {"biological_target": "T1, endogenous wild-type H-Ras protein (Homo sapiens, UniProt P01112)", "T1 construct": "an endogenous wild-type K-Ras protein and wild-type H-Ras protein; endogenous in cells; host or cells: HeLa", "assay": "Degradation of endogenous wild-type H-Ras protein in HeLa cells, Western blot analysis", "settings": "48 hours after addition, vs control (DMSO), FIG. 5", "protocol": "(§1) In Example 6, degradation (knockdown) of an endogenous wild-type K-Ras protein and wild-type H-Ras protein in HeLa cells to which TUS-007 had been added was evaluated by Western blot analysis.\n(§2) HeLa cells were seeded in a 24-well plate at a cell density of 8×10^4 cells/well, and then cultured under conditions of 37° C. and 5 vol % CO2 for 16 hours.\n(§3) After 16 hours from cell seeding, TUS-007 was added to HeLa cells as follows. As a medium, a serum-free medium (37° C.) in which 1 mass % L-glutamine solution (Sigma-Aldrich) was added to D-MEM (high D-glucose, phenol red, sodium pyruvate (Wako Pure Chemical Industries, Ltd.)) was used. It is noted that the L-glutamine solution was added immediately before use. A DMSO solution containing TUS-007 was mixed with the medium so that the concentration of DMSO was 1 vol %, and added to each well at 500 μL/well, and cultured under conditions of 37° C. and 5 vol % CO2. As a control, DMSO was used. […]\n(§4) After electrophoresis, proteins were transferred to a PVDF membrane (Immobion™-P, Millipore) under conditions of 100 V and 2 hours using a tank-type blotting device and a transfer buffer (25 mM Tris-HCl, 195 mM glycine, 0.01% SDS, 15% methanol). […] Subsequently, the membrane was treated with a chemiluminescence reagent Immobilon™ Western (Millipore), and then chemiluminescence was detected using a lumino image analyzer LAS-3000 (FUJIFILM Corporation). […]"}, "[2]": {"biological_target": "T2, G12D mutant K-Ras protein (Homo sapiens, UniProt P01116, G12D)", "T2 construct": "expressed in transfected cells; host or cells: HeLa", "assay": "Degradation (knockdown) of G12D mutant K-Ras protein forcibly expressed in HeLa cells, Western blot analysis", "settings": "FIG. 4", "protocol": "In Example 5, degradation (knockdown) of the G12D mutant K-Ras protein forcibly expressed in HeLa cells through TUS-007 was evaluated by Western blot analysis.\nA plasmid expressing the G12D mutant K-Ras protein (K-Ras-G12D) was prepared, as in Example 4.\nAs in Example 4, the plasmid was introduced into HeLa cells to transiently overexpress a G12D mutant K-Ras protein or a DsRed protein for comparison in the cells. HeLa cells into which the plasmid had been introduced were seeded in a 24-well plate at a cell density of 4×10^4 cells/well, and then cultured under conditions of 37° C. and 5 vol % CO2 for 40 hours.\nTUS-007 was added to HeLa cells as in Example 4. Furthermore, in addition to an experiment group in which a DMSO solution containing TUS-007 had been added, an experiment group in which a DMSO solution containing Ras-SOS-NH2 had been added was prepared. DMSO was used as a control.\nAs in Example 3, degradation of a G12D mutant K-Ras protein through TUS-007 was evaluated by Western blot analysis."}, "[3]": {"biological_target": "T3, endogenous wild-type K-Ras protein (Homo sapiens, UniProt P01116)", "T3 construct": "an endogenous wild-type K-Ras protein; endogenous in cells; host or cells: HeLa", "assay": "Degradation of endogenous wild-type K-Ras protein in HeLa cells, Western blot analysis", "settings": "48 hours after addition, vs control (DMSO), FIG. 5", "protocol": "as §1, §2, §3, §4"}, "[4]": {"biological_target": "T4, G12V mutant K-Ras protein (Homo sapiens, UniProt P01116, G12V)", "T4 construct": "expressed in transfected cells; host or cells: HeLa", "assay": "Degradation (knockdown) of G12V mutant K-Ras protein forcibly expressed in HeLa cells, FACS analysis", "settings": "FIG. 3"}}}
{"smiles": "CCC(C)[C@H](NC(=O)CCCCCCNC(=O)[C@H](CC(C)C)NC(=O)CNC(=O)c1cc(Cl)ccc1Cl)C(=O)Nc1ccc2[nH]c(Cc3c[nH]c4ccccc34)nc2c1", "note": "(stereo in doubt) [TUS-007]", "values": [{"measurement": "amount of the endogenous wild-type H-Ras protein (Western blot)", "setting": "[1]", "value": "the amount of the endogenous wild-type K-Ras protein and wild-type H-Ras protein was reduced"}, {"measurement": "amount of the G12D mutant K-Ras protein (Western blot)", "setting": "[2]", "value": "the amount of the G12D mutant K-Ras protein was reduced in a concentration-dependent manner"}, {"measurement": "amount of the endogenous wild-type K-Ras protein (Western blot)", "setting": "[3]", "value": "the amount of the endogenous wild-type K-Ras protein and wild-type H-Ras protein was reduced"}, {"measurement": "degradation of the G12V mutant K-Ras protein when both TUS-007 and MLN2238 were added", "setting": "[4]; MLN2238 co-added, compared with TUS-007 alone", "value": "G12D mutant and G12V mutant K-Ras protein degradation was inhibited"}, {"measurement": "degradation (knockdown) of the G12V mutant K-Ras protein (shift of GFP/DsRed ratio graph)", "setting": "[4]; vs control (DMSO)", "value": "degradation of the G12D mutant and the G12V mutant K-Ras protein was induced"}]}
